Laboratory results: paper PMC9666779 (Frontiers in Pharmacology, 2022)
Bridge positions count the residues as written; N and C are the ends. Square brackets hold non-standard residues; d marks the D form. Peptide text beside a SMILES is read from it.

How the values were obtained:
Mpro = Mpro (Severe acute respiratory syndrome coronavirus 2, UniProt P0DTD1); assay: biochemical; assay type: binding, SARS-CoV-2
NRP1 = NRP1 (Homo sapiens, UniProt O14786); assay: biochemical; assay type: binding
SARS-CoV-2 Mpro = SARS-CoV-2 Mpro (Severe acute respiratory syndrome coronavirus 2, UniProt P0DTD1); assay: biochemical
Method: According to a previously reported method ([Du et al., 2021]), the FRET-based enzymatic assay was used to evaluate the inhibitory effects of the peptides on Mpro. First, the Mpro (250 nM at a final concentration) was incubated with various concentrations of tested peptides in 90 μL reaction buffer for 30 min in a black 96-well plate, and then the reaction was initiated by adding 10 μL of […] FRET-based peptide substrate (Dabcyl-KTSAVLQ/SGFRKME-Edans). The reaction was monitored for 1 h, and the initial velocity was calculated using the data by linear regression. The IC50 was calculated by plotting the initial velocity against various concentrations of testing inhibitor by using a four parameters dose−response curve in Prism software.

FHs 74 Int cells = assay: MTT cytotoxicity assay, FHs 74 Int cells; assay type: cell-based, human; conditions: 50 μM, 48 h
Method: According to a previously reported method ([Zheng et al., 2021b]), 293T, A549 and FHs 74 Int cells were plated in 96-well plates at a density of 5 × 10^4 cells per well. After incubation for 24 h, the peptide solution was added into the plates and the cells were incubated for 48 h. After that, the incubation medium was removed, the cells were washed with PBS at pH 7.4, and then MTT stock solution (0.5 mg/ml) was added into each well and incubated for another 4 h. The medium was removed by centrifugation, and the precipitated cells were lysed using DMSO. After the purple crystals were completely dissolved, the cell viability was calculated according to the absorbance signals measured by a microplate reader at the wavelength of 570 nm.
Figure S2. The cytotoxicity effects of MNs 1-4 on FHs 74 Int cells detected using MTT assay. Cells were treated with the concentration of 50 μM of peptides for 48 h. The results are represented as mean ± SD (n = 3).

NRP1, sequence (O14786 273-427): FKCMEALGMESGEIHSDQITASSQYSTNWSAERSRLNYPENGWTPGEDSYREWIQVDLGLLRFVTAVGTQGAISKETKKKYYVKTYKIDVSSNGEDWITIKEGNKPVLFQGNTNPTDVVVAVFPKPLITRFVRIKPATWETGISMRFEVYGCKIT

Row | Compound | Mpro, Kd (Mpro; MST, mean ± SD (n = 3)) | Kd (NRP1) | Kd (Mpro) | IC50 (SARS-CoV-2 Mpro) | viability of FHs 74 Int cells (cytotoxicity) (FHs 74 Int cells)
1 | CC(C)C[C@@H]1NC(=O)[C@H](CCC(N)=O)NC(=O)[C@H](CCCNC(=N)N)NC(=O)[C@H](C)NC(=O)[C@H](CCCCN)NC(=O)[C@@H]2CSSC[C@@H](C(=O)N[C@@H](CC(=O)O)C(=O)N[C@@H](CCCCN)C(=O)N3CCC[C@H]3C(=O)N[C@@H](CCCNC(=N)N)C(=O)N[C@@H](CCCNC(=N)N)C(=O)O)NC(=O)[C@H](CCCNC(=N)N)NC(=O)[C@H](CSSC[C@H](NC(=O)[C@@H](N)CO)C(=O)N[C@@H](CCCCN)C(=O)N[C@@H](CC(N)=O)C(=O)N[C@@H]([C@@H](C)O)C(=O)N[C@@H](CC(=O)O)C(=O)N[C@@H](CO)C(=O)N[C@@H](CCCNC(=N)N)C(=O)N2)NC(=O)[C@H]([C@@H](C)O)NC(=O)[C@H](CCCNC(=N)N)NC(=O)[C@H](CCC(=O)O)NC(=O)[C@H](CC(N)=O)NC(=O)[C@H](CC(C)C)NC(=O)[C@H](CCC(=O)O)NC1=O [EG3287, reference compound] (H-SCKNTDSRCKARQLELNERTCRCDKPRR-OH; disulfide 2-21, 9-23; N-terminus assumed) | no binding affinity | 912 ± 10.6 nM |  |  | 
2 | CC(C)C[C@@H]1NC(=O)[C@H](C(C)C)NC(=O)[C@H](C)NC(=O)[C@H](Cc2ccccc2)NC(=O)[C@H](CCC(N)=O)NC(=O)[C@H](CC(C)C)NC(=O)[C@@H](Cc2ccccc2)NC(=O)[C@H](N)CSSC[C@H](C(=O)NCC(=O)NCC(=O)NCC(=O)N[C@@H](CCCNC(=N)N)C(=O)N2CCC[C@H]2C(=O)N[C@@H](CCCNC(=N)N)C(=O)N[C@@H](CCCNC(=N)N)C(=O)NCC(=O)N[C@@H](CCCNC(=N)N)C(=O)O)NC(=O)[C@H](CCC(N)=O)NC(=O)[C@H](CCCCN)NC(=O)[C@H](CCCNC(=N)N)NC(=O)[C@H](CCCNC(=N)N)NC(=O)[C@H](Cc2c[nH]cn2)NC(=O)[C@H](CCCNC(=N)N)NC1=O [MN-1] (H-[dC][dF]LQFAVLRHRRKQ[dC]GGGRPRRGR-OH; disulfide 1-15) |  | 95.6 ± 4.1 nM | 53.4 ± 2.5 nM | 56.3 ± 3.9 nM | 
3 | CC(C)C[C@@H]1NC(=O)[C@H](C(C)C)NC(=O)[C@H](C)NC(=O)[C@H](Cc2ccc(O)cc2)NC(=O)[C@H](CCC(N)=O)NC(=O)[C@H](CC(C)C)NC(=O)[C@@H](Cc2ccccc2)NC(=O)[C@H](N)CSSC[C@H](C(=O)NCC(=O)NCC(=O)NCC(=O)N[C@@H](CCCNC(=N)N)C(=O)N2CCC[C@H]2C(=O)N2CCC[C@H]2C(=O)N[C@@H](CCCNC(=N)N)C(=O)N[C@@H](CCCNC(=N)N)C(=O)N[C@@H](C)C(=O)N[C@@H](CCCNC(=N)N)C(=O)O)NC(=O)[C@H](CCC(=O)O)NC(=O)[C@H](CCCNC(=N)N)NC(=O)[C@H](CCCNC(=N)N)NC(=O)[C@H](CCCCN)NC(=O)[C@H](CCC(N)=O)NC(=O)[C@H](CCCCN)NC1=O [MN-2] (H-[dC][dF]LQYAVLKQKRRE[dC]GGGRPPRRAR-OH; disulfide 1-15) |  | 12.3 ± 1.2 nM | 18.2 ± 1.9 nM | 20.6 ± 2.2 nM | undetectable cytotoxicity
4 | CC[C@@H](C)[C@H]1NC(=O)[C@H](N)CSSC[C@H](C(=O)NCC(=O)NCC(=O)NCC(=O)N[C@@H](CCCNC(=N)N)C(=O)NCC(=O)N[C@@H](CCC(=O)O)C(=O)N[C@@H](CCCNC(=N)N)C(=O)N2CCC[C@H]2C(=O)N2CCC[C@H]2C(=O)N[C@@H](CCCNC(=N)N)C(=O)O)NC(=O)[C@H](CCCCN)NC(=O)[C@H](CCCNC(=N)N)NC(=O)[C@H](CCC(N)=O)NC(=O)[C@H](CCCNC(=N)N)NC(=O)[C@H](CCCCN)NC(=O)[C@H](CCCCN)NC(=O)[C@H](Cc2ccccc2)NC(=O)[C@H](C(C)C)NC(=O)[C@H](C)NC(=O)[C@H](CC(C)C)NC(=O)[C@H](CCC(N)=O)NC(=O)[C@H](CC(C)C)NC1=O [MN-3] (H-[dC][dI]LQLAVFKKRQRK[dC]GGGRGERPPR-OH; disulfide 1-15) |  | 110 ± 6.7 nM | 206 ± 8.8 nM | 209 ± 7.6 nM | 
5 | CC(C)C[C@@H]1NC(=O)[C@H](C(C)C)NC(=O)[C@H](C)NC(=O)[C@H](Cc2ccccc2)NC(=O)[C@H](CCC(N)=O)NC(=O)[C@H](CC(C)C)NC(=O)[C@@H](Cc2c[nH]c3ccccc23)NC(=O)[C@H](N)CSSC[C@H](C(=O)NCC(=O)NCC(=O)N[C@@H](CCCNC(=N)N)C(=O)N2CCC[C@H]2C(=O)N[C@@H](C)C(=O)N[C@@H](CCCNC(=N)N)C(=O)N2CCC[C@H]2C(=O)N[C@@H](C)C(=O)N[C@@H](CCCNC(=N)N)C(=O)O)NC(=O)[C@H](C)NC(=O)[C@H](CCC(N)=O)NC(=O)[C@H](CCCCN)NC(=O)[C@H](CCCCN)NC(=O)[C@H](CCC(=O)O)NC(=O)[C@H](CCCNC(=N)N)NC1=O [MN-4] (H-[dC][dW]LQFAVLREKKQA[dC]GGRPARPAR-OH; disulfide 1-15) |  | 15.1 ± 3.3 nM | 116 ± 5.5 nM | 119 ± 6.1 nM | 
